One block for each molecule: values may come before it. Calls of active or inactive are those of the source. The calls are words filed in the database; no cut-off is given here.
What was measured:
[1] = target: T1, Diacylglycerol O-acyltransferase 1 (Homo sapiens, UniProt O75907); assay: Inhibition of human DGAT1 in serum starved HEK293 cells assessed as inhibition of triglyceride synthesis incubated for 20 mins followed by 13C-addition of 13C-oleic acid pre-complexed with BSA for 120 mins by LC-MS-based mass spectrophotometric analysis; assay type: cell-based
T1 sequence (O75907 whole entry): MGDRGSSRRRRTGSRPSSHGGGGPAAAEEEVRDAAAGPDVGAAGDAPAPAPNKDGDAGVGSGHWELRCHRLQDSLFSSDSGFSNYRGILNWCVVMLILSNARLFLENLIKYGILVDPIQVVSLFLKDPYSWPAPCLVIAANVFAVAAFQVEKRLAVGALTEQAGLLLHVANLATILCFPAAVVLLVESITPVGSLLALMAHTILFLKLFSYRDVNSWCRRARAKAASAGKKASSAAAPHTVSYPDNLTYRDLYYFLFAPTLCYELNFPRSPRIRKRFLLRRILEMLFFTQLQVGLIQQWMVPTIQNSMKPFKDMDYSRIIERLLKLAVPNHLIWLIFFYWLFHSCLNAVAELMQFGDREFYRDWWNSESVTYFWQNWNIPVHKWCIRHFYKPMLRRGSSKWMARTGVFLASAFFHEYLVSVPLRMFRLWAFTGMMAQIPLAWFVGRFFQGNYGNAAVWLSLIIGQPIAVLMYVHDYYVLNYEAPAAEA

[2] = target: T1, Diacylglycerol O-acyltransferase 1; assay: Inhibition of recombinant human DGAT1 expressed in Sf9 cell membrane assessed as inhibition of triglyceride synthesis incubated for 1 hrs by LC-MS-based mass spectrophotometric analysis; assay type: cell membranes
[3] = tested on: Mus musculus; assay: In vivo inhibition of DGAT1 in C57BL/6 mouse model of acute lipid challenge assessed as reduction in AUC plasma triglyceride level at 3 to 10 mg/kg, po as corn oil bolus by Oral lipid tolerance test relative to control; assay type: functional, organism-based; conditions: dose 3-10 mg/kg
[4] = tested on: Mus musculus; assay: In vivo inhibition of DGAT1 in C57BL/6 mouse model of acute lipid challenge assessed as reduction in chylomicron derived plasma triglyceride excursion at 3 to 10 mg/kg, po as corn oil bolus by Oral lipid tolerance test relative to control; assay type: functional, organism-based; conditions: dose 3-10 mg/kg
[5] = Solubility of compound in PBS at pH 9 incubated for 4 hrs under shaking condition by UV absorbance based analysis; assay type: physicochemical
[6] = Solubility of compound in PBS at pH 2 incubated for 4 hrs under shaking condition by UV absorbance based analysis; assay type: physicochemical
[7] = Solubility of compound in PBS at pH 7.4 incubated for 4 hrs under shaking condition by UV absorbance based analysis; assay type: physicochemical
[8] = target: CYP2D6 (Homo sapiens, UniProt P10635); assay: Inhibition of recombinant human CYP2D6 at 10 uM by fluorescence plate reader analysis; assay type: ADME
[9] = target: CYP3A4 (Homo sapiens, UniProt P08684); assay: Inhibition of recombinant human CYP3A4 at 25 uM by fluorescence plate reader analysis; assay type: ADME
[10] = target: T2, CYP1A2 (Homo sapiens, UniProt P05177); assay: Inhibition of recombinant human CYP1A2 at 25 uM by fluorescence plate reader analysis; assay type: ADME
T2 sequence (P05177 whole entry): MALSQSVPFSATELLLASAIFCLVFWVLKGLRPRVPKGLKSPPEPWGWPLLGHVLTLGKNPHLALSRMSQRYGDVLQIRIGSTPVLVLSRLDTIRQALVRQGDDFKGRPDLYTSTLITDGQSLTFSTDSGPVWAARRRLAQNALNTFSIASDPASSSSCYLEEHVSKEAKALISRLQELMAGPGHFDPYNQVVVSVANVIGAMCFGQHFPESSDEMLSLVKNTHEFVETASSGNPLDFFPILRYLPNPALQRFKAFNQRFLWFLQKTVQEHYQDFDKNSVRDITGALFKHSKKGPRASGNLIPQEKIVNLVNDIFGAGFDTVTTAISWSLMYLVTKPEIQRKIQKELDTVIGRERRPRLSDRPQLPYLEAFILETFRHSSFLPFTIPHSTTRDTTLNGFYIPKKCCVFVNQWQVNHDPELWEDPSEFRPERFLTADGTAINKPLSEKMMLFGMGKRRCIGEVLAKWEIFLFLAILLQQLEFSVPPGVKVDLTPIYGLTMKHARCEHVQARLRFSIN

[11] = Solubility of compound in PBS at pH 4 incubated for 4 hrs under shaking condition by UV absorbance based analysis; assay type: physicochemical

Chain of CYP3A4 (P08684 whole entry): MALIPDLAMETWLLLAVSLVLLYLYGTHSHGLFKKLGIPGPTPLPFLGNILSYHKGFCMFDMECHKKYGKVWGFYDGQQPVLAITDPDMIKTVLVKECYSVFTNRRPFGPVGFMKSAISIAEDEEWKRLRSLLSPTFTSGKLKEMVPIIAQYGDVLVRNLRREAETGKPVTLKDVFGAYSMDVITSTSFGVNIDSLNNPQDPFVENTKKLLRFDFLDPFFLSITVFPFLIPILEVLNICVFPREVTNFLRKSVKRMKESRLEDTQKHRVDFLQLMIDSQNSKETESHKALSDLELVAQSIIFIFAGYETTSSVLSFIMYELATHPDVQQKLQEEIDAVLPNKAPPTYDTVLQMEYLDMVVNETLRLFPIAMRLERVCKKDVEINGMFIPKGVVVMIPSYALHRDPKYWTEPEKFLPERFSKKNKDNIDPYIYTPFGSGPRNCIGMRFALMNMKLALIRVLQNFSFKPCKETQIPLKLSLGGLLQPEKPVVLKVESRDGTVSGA
Chain of CYP2D6 (P10635 whole entry): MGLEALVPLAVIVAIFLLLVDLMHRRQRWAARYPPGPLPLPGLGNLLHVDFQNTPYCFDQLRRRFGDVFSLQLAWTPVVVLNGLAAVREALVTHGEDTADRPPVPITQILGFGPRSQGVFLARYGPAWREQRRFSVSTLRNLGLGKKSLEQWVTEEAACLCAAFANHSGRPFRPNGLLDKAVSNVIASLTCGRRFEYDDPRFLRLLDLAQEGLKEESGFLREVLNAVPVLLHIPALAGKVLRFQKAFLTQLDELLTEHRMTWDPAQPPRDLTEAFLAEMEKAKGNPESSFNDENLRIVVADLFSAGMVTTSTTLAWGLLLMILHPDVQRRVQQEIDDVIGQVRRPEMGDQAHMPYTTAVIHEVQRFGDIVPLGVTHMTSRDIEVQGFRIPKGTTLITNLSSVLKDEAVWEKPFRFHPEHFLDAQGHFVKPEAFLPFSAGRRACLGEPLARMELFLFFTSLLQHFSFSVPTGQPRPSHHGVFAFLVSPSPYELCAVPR

IC50 [1]: 0.023 µM
IC50 [2]: 0.075 µM
Compound: O=C(O)CC1CCC2(CC1)CCC(c1ccc(NC(=O)c3nnc(Nc4ccc(F)c(F)c4)o3)cc1)CC2 (stereo in doubt; 8b)

Compound: O=C(Nc1ccc(N2CCC3(CC2)CC(C(=O)O)C3)nc1)c1nnc(Nc2ccc(F)c(F)c2)o1
inhibition [3]: Active
inhibition [4]: Active

IC50 [1]: 0.024 µM
IC50 [2]: 0.064 µM
Compound: O=C(O)CC1CCC2(CC1)CCC(c1ccc(NC(=O)c3nnc(Nc4ccc(F)c(F)c4)o3)cc1)CC2 (stereo in doubt; 8a)

solubility at 4 h [5]: < 6 µM
solubility at 4 h [6]: 8 µM
solubility at 4 h [7]: 37 µM
inhibition at 10 µM [8]: 7%
inhibition at 25 µM [9]: 12%
inhibition at 25 µM [10]: 8%
solubility at 4 h [11]: < 6 µM
Compound: O=C([O-])CC1CCC2(CC1)CCN(c1ccc(NC(=O)c3nnc(Nc4ccc(F)c(F)c4)o3)cn1)CC2.[Na+]
